{"source": "ChEMBL document CHEMBL1149049", "about": "“Increased feline cerebral blood flow induced by dehydroevodiamine hydrochloride from Evodia rutaecarpa” (J Nat Prod, 1994)", "system": "Felis catus", "assay": "Increase in cerebral blood flow in anesthetized cat suprasylvian gyrus at 0.3 mg/kg, iv", "format": "functional, organism-based", "design": "dose 0.3 mg/kg", "note": "Activity calls are given as the source filed them. The rule behind the calls is not given here."}
{"smiles": "C[n+]1c2n(c(=O)c3ccccc31)CCc1c-2[nH]c2ccccc12", "values": [{"measurement": "Activity", "result": "Active"}]}
